Measurements taken from patent US6897228B2, “Pyridoxine and pyridoxal analogues: new uses” (Medicure International Inc., priority 2000, dated 2005).

Tests used:
[1] = tested on: male Sprague-Dawley rats, occlusion of the left coronary artery; test: In vivo infarct size and scar mass after coronary artery ligation; set-up: species or system rat; conditions: after 21 days, 10 mg/kg daily by gastric tube; for infarct size (as a percentage of left ventricle size): untreated control about 45
Procedure: (§1) Food and water were supplied ad libitum. […] Hemodynamic and histological assessments were made.
After 21 days, once the hemodynamic data were obtained, the animals were sacrificed and both average dry scar mass to left ventricle mass (n=5/group) and infarct size (n=5/group) were measured. For infarct size measurement, hearts from the untreated and PLP/compound XXIIb-treated groups were fixed in formalin and embedded in paraffin. Six evenly spaced slices were cut across the left ventricle. […] sections were cut from each slice and mounted. Sections were stained with Trichrome to discriminate between fibrous scar and noninfarcted tissue. Using the free-drawing line tool in Scion Image v4.02b, infarct internal perimeter and left ventricle internal perimeter lengths were traced per oculum for each section. Noteworthy transmural scars were taken into account. Infarct size was then expressed as the average scar perimeter/ventricle perimeter ratio. Scar mass measurements were obtained by drying excised scar tissue and left ventricles at 50-60° C. for 72 hours.

[2] = tested on: male Sprague-Dawley rats, occlusion of the left coronary artery; test: In vivo hemodynamic changes after coronary artery ligation; conditions: day 21 after coronary ligation; 10 mg/kg daily by gastric tube
[3] = tested on: platelets (platelet rich plasma); test: Inhibition of platelet aggregation (aggregometer, platelet rich plasma); assay type: cell-based; conditions: for Extent of aggregation as a percentage amplitude, 1 μg/mL collagen: agonist 1 μg/mL collagen; for Extent of aggregation as a percentage amplitude, 4 μM ADP: agonist 4 μM ADP; for Extent of aggregation as a percentage amplitude, 5 μg/mL collagen: agonist 5 μg/mL collagen; for Extent of aggregation as a percentage amplitude, 12 μM TRAP: agonist 12 μM TRAP
Procedure: Platelet rich plasma (PRP) was obtained by drawing whole blood into sodium citrate tubes (3.2%) and centrifuging at 700 rpm for 10 minutes. Platelet poor plasma (PPP) was obtained by centrifuging the remainder of the sample ntil the platelets were removed (3200 rpm for 10 minutes). The PRP was adjusted to a count of 280×10^9/L using a mixture of PRP and PPP. The incubation mixture consisted of 200 μL of platelets and 25 μL of the appropriate compound (18 mM stock for a final concentration of 2 mM and 4.5 mM stock for a final concentration of 500 μM), rendering an approximate final platelet count in the incubation mixture of 250×10^9/L. After incubation (30 minutes at room temperature, the cuvettes were incubated for 3 minutes at 37° C., transferred to the mixing wells and after the baselines transmittances were measured in an aggregometer (Chrono-Log 4), 25 μL of agonist was added to give a final concentration of 4 μM ADP, 1 μg/mL collagen, 5 μg/mL collagen or 12 μM thrombin receptor activating peptide (TRAP). Final transmittances were then measured in the aggregometer (lower percent transmittance represents higher aggregation). […] Table 24-1 gives the results of the extent of aggregation for several compounds as percentage amplitude read directly from the aggregometer.

[4] = tested on: male Sprague-Dawley rats, occlusion of the left coronary artery; test: In vivo hypertrophy after coronary artery ligation; conditions: rat model of Example 20
Procedure: as §1
Hypertrophy is a physiological condition of enlargement (increased mass) due to increased stress. Cardiac hypertrophy is assessed by calculating the heart to body mass ratio. Treatment with PLP or compound XXIIb results in a decrease in cardiac hypertrophy, in the rat model described in Example 20.

Compound | dry scar to left ventricle mass ratio [1] | infarct size (as a percentage of left ventricle size) [1] | +dP/dt (rate of contraction) [2] | LVEDP in response to coronary occlusion [2] | −dP/dt (rate of relaxation) [2] | Extent of aggregation as a percentage amplitude, 1 μg/mL collagen ([3]; compound 500 μM) [%] | Extent of aggregation as a percentage amplitude, 4 μM ADP ([3]; compound 500 μM) [%] | Extent of aggregation as a percentage amplitude, 5 μg/mL collagen ([3]; compound 500 μM) [%] | Extent of aggregation as a percentage amplitude, 12 μM TRAP ([3]; compound 500 μM) [%] | Extent of aggregation as a percentage amplitude, 1 μg/mL collagen ([3]; compound 2 mM) [%] | Extent of aggregation as a percentage amplitude, 4 μM ADP ([3]; compound 2 mM) [%] | Extent of aggregation as a percentage amplitude, 5 μg/mL collagen ([3]; compound 2 mM) [%] | Extent of aggregation as a percentage amplitude, 12 μM TRAP ([3]; compound 2 mM) [%] | cardiac hypertrophy (heart to body mass ratio) [4]
4-methylimidazole pyridoxine [XXIIb] | reductions similar in magnitude to that seen in the PLP group | reduced | recoveries | reduced rises | recoveries | 79 | 59 | 82 | 91 | 32 | 46 | 77 | 84 | decrease
Cc1ncc(CNc2ccc(C(=N)N)cc2)c(CO)c1O [Compound XXXV] |  |  |  |  |  | 83 | 70 | 75 | 90 | 79 | 15 | 67 | 11 | 
Cc1ncc(COP(=O)(O)O)c(C=O)c1O [PLP, 3-hydroxy-2-methyl-5-[(phosphonooxy)methyl]-4-pyridine-carboxaldehyde, reference compound] | reduced | reduced | recoveries | reduced rises | recoveries | 89 | 69 | 87 | 90 | 84 | 16 | 89 | 91 | decrease
